Laboratory results: PubChem BioAssay (NCI)
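Five concentrations, 48 hours, 96-well plates. GI50 marks 50% less growth. TGI marks complete inhibition of growth.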

Legend:
Assay in all cases: NCI tumour cell line growth inhibition, 48 h; in the data active means GI50 below about 0.43 µM; inactive means the rest
SF-268 CNS = test system: SF-268 CNS
MOLT-4 leukemia = test system: MOLT-4 leukemia
UACC-257 melanoma = test system: UACC-257 melanoma
OVCAR-8 ovarian = test system: OVCAR-8 ovarian
SW-620 colon = test system: SW-620 colon
A498 renal = test system: A498 renal
A549 NSCLC = test system: A549 NSCLC
UACC-62 melanoma = test system: UACC-62 melanoma
KM12 colon = test system: KM12 colon
U251 CNS = test system: U251 CNS
NCI-H460 lung = test system: NCI-H460 lung
DU-145 prostate = test system: DU-145 prostate
OVCAR-5 ovarian = test system: OVCAR-5 ovarian
EKVX NSCLC = test system: EKVX NSCLC
SNB-19 CNS = test system: SNB-19 CNS
UO-31 renal = test system: UO-31 renal
ACHN renal = test system: ACHN renal
SK-MEL-28 melanoma = test system: SK-MEL-28 melanoma
786-0 renal = test system: 786-0 renal
MDA-MB-435 = test system: MDA-MB-435
T-47D breast = test system: T-47D breast
HOP-92 NSCLC = test system: HOP-92 NSCLC
HT29 colon = test system: HT29 colon
NCI-H522 lung = test system: NCI-H522 lung
OVCAR-4 ovarian = test system: OVCAR-4 ovarian
MCF7 breast = test system: MCF7 breast
SK-MEL-5 melanoma = test system: SK-MEL-5 melanoma
RPMI-8226 leukemia = test system: RPMI-8226 leukemia
IGROV1 ovarian = test system: IGROV1 ovarian
HCC-2998 colon = test system: HCC-2998 colon
HCT-116 colon = test system: HCT-116 colon
NCI/ADR-RES ovarian = test system: NCI/ADR-RES ovarian
NCI-H226 lung = test system: NCI-H226 lung
COLO 205 colon = test system: COLO 205 colon
SK-OV-3 ovarian = test system: SK-OV-3 ovarian
HS 578T breast = test system: HS 578T breast
SK-MEL-2 melanoma = test system: SK-MEL-2 melanoma
HCT-15 colon = test system: HCT-15 colon
HOP-62 NSCLC = test system: HOP-62 NSCLC
RXF 393 renal = test system: RXF 393 renal
TK-10 renal = test system: TK-10 renal
M14 melanoma = test system: M14 melanoma
K-562 leukemia = test system: K-562 leukemia
PC-3 prostate = test system: PC-3 prostate
SF-295 CNS = test system: SF-295 CNS
CAKI-1 renal = test system: CAKI-1 renal
SNB-75 CNS = test system: SNB-75 CNS
SF-539 CNS = test system: SF-539 CNS
HL-60(TB) leukemia = test system: HL-60(TB) leukemia
CCRF-CEM leukemia = test system: CCRF-CEM leukemia

Cc1ccc(Cl)cc1NC(=O)c1sc2nc3c(cc2c1N)C(=O)CCC3
4.95 µM: TGI (NCI-H522 lung)
inactive: GI50 (SF-268 CNS) > 100 µM | GI50 (MOLT-4 leukemia) > 100 µM | GI50 (UACC-257 melanoma) 7.3 µM | GI50 (OVCAR-8 ovarian) > 100 µM | GI50 (SW-620 colon) 3.68 µM | GI50 (A498 renal) 1.86 µM | GI50 (A549 NSCLC) 3.85 µM | GI50 (UACC-62 melanoma) 4.45 µM | GI50 (KM12 colon) 3.65 µM | GI50 (U251 CNS) 4.45 µM | GI50 (NCI-H460 lung) 3.73 µM | GI50 (DU-145 prostate) 4.4 µM | GI50 (OVCAR-5 ovarian) > 100 µM | GI50 (EKVX NSCLC) 7.26 µM | GI50 (SNB-19 CNS) 5.64 µM | GI50 (UO-31 renal) > 100 µM | GI50 (ACHN renal) 50.4 µM | GI50 (SK-MEL-28 melanoma) > 100 µM | GI50 (786-0 renal) > 100 µM | GI50 (MDA-MB-435) 1.1 µM | GI50 (T-47D breast) > 100 µM | GI50 (HOP-92 NSCLC) > 100 µM | GI50 (HT29 colon) 3.54 µM | GI50 (NCI-H522 lung) 2.17 µM | GI50 (OVCAR-4 ovarian) > 100 µM | GI50 (MCF7 breast) 4.67 µM | GI50 (SK-MEL-5 melanoma) 3.48 µM | GI50 (RPMI-8226 leukemia) > 100 µM | GI50 (IGROV1 ovarian) > 100 µM | GI50 (HCC-2998 colon) > 100 µM | GI50 (HCT-116 colon) 5.97 µM | GI50 (NCI/ADR-RES ovarian) 5.28 µM | GI50 (NCI-H226 lung) > 100 µM | GI50 (COLO 205 colon) 4.41 µM | GI50 (SK-OV-3 ovarian) 5.26 µM | GI50 (HS 578T breast) 2.34 µM | GI50 (SK-MEL-2 melanoma) 3.14 µM | GI50 (HCT-15 colon) 4.79 µM | GI50 (HOP-62 NSCLC) > 100 µM | GI50 (RXF 393 renal) 2.48 µM | GI50 (TK-10 renal) 8.99 µM | GI50 (M14 melanoma) 6.31 µM | GI50 (K-562 leukemia) 3.48 µM | GI50 (PC-3 prostate) 4.34 µM | GI50 (SF-295 CNS) 2.33 µM | GI50 (CAKI-1 renal) 3.33 µM | GI50 (SNB-75 CNS) 4.1 µM | GI50 (SF-539 CNS) 4.65 µM
5.04 µM: TGI (MDA-MB-435)
7.44 µM: TGI (SF-295 CNS)
6.96 µM: TGI (RXF 393 renal)
> 100 µM: TGI (SF-268 CNS) | TGI (MOLT-4 leukemia) | TGI (UACC-257 melanoma) | TGI (OVCAR-8 ovarian) | TGI (SW-620 colon) | TGI (A498 renal) | TGI (A549 NSCLC) | TGI (UACC-62 melanoma) | TGI (KM12 colon) | TGI (U251 CNS) | TGI (NCI-H460 lung) | TGI (DU-145 prostate) | TGI (OVCAR-5 ovarian) | TGI (EKVX NSCLC) | TGI (SNB-19 CNS) | TGI (UO-31 renal) | TGI (ACHN renal) | TGI (SK-MEL-28 melanoma) | TGI (786-0 renal) | TGI (T-47D breast) | TGI (HOP-92 NSCLC) | TGI (HT29 colon) | TGI (OVCAR-4 ovarian) | TGI (MCF7 breast) | TGI (SK-MEL-5 melanoma) | TGI (RPMI-8226 leukemia) | TGI (IGROV1 ovarian) | TGI (HCC-2998 colon) | TGI (HCT-116 colon) | TGI (NCI/ADR-RES ovarian) | TGI (NCI-H226 lung) | TGI (COLO 205 colon) | TGI (SK-OV-3 ovarian) | TGI (HS 578T breast) | TGI (SK-MEL-2 melanoma) | TGI (HCT-15 colon) | TGI (HOP-62 NSCLC) | TGI (TK-10 renal) | TGI (M14 melanoma) | TGI (K-562 leukemia) | TGI (PC-3 prostate) | TGI (CAKI-1 renal) | TGI (SNB-75 CNS) | TGI (SF-539 CNS)

Cc1cc(S(=O)(=O)[O-])ccc1-n1nc(C)[c-](N=Nc2cc(S(=O)(=O)[O-])ccc2C(=O)[O-])c1=O.[Cr+3].[Na+].[OH-] (stereo not drawn)
inactive: GI50 (HL-60(TB) leukemia) 28.3 µM | GI50 (CCRF-CEM leukemia) 0.468 µM
